Patent US10016515B2, “DMA, a bis-benzimidazole, confers radioprotection to the intestine via Akt/NFκB dual pathway activation” (Jawaharlal Nehru University, priority 2016, dated 2018)

Experiments:
Balb/c mice spleen = test: Endogenous spleen colony forming assay; type: in vivo, mouse
Description: Group 1, sham control (normal saline treated); Group 2, DMA treated (200 mg/kg bw); Group 3, radiation control (whole body exposure to 8Gy); Group 4, treated with DMA (200 mg/kg bw) prior to whole body exposure to 8Gy. Mice (6 animals each) were irradiated, 2 h post-administration of DMA. The mice were sacrificed on day 10 and spleens were removed, blotted free of blood, weighed and the spleen index was calculated [spleen index=(spleen weight/body weight)×100]. Subsequently spleens were fixed in Bouin's fixative for 15 min and the number of macroscopic spleen cell colonies was counted manually.

Balb/c intestinal cells = test: Cell proliferation by BrdU labeling, flow cytometry; type: in vivo, mouse
Description: S phase cells were labeled in vivo by administering BrdU (i.p., 100 mg/kg) to each mouse 2 h before euthanasia. Mice were euthanized 3 days after irradiation and small intestine was rapidly dissected, chopped into homogeneous solution by straining with 70μ strainer and fixed in 70% ethanol. Cells stained with 0.5 mL of RNase (2 mg/mL) and 0.5 mL of propidium iodide (0.1% in 0.6% Triton X-100 in PBS) for 30 min in dark. Samples were then analysed on a FACS Calibur flow-cytometer (Becton Dickinson).

A549 cells = test: Cytotoxicity by MTT assay; type: cell-based, human
Description: (§1) Exponentially growing HEK293, MRC5 and A549 cells were plated at cell densities 3000 cells per well in 96-well tissue culture plates. […] Cytotoxicity was measured by MTT assay according to the manufacturer's instructions (Promega, Madison, Wis., USA).

MRC5 cells = test: Cytotoxicity by MTT assay; type: cell-based, human
Description: as §1

HEK293 cells [1] = test: Cytotoxicity by MTT assay; type: cell-based, human
Description: as §1

[2] = Cytotoxicity by MTT assay; type: cell-based, human; settings: human
Description: as §1

[3] = test system: Akt in MRC5 and A549 cells; test: Akt kinase assay in cell lines; type: cell-based, human; settings: DMA+Radiation vs control and radiation
Description: Akt kinase activity was determined using Akt Kinase Assay Kit (Nonradioactive) (Cell Signaling Technology, Cat. #9840) following the manufacturer's instructions.

Balb/c mice liver tissue = test: Biochemical estimations of antioxidant enzymes, thiols and lipid peroxidation in liver; type: in vivo, mouse; design: MDA level in hepatic tissues / Reduced glutathione (GSH) level in liver / GST level / GST content / SOD activity / SOD level / Total thiol contents in liver homogenates: unit not given here
Description: Mice hepatic tissues were homogenised using REMI homogenizer in phosphate buffer and centrifuged at 10,000×g for 15 min and aliquots of supernatant were separated. The supernatant was used for the biochemical estimations using standard spectrophotometric reported methods. The total protein was determined by the Lowry method.
The liver supernatant was incubated for 10 min and the absorbance was measured at 412 nm and total thiol content was calculated by standard method. The amount of MDA was done by reaction with thiobarbituric acid (TBA) at 532 nm by literature method.
Glutathione was measured according to the Ellman's method.
Superoxide dismutase (SOD) activity was assayed according to the Marklund and Marklund method. The activity of GST was determined by using CDNB as the substrate. The reaction mixture contained 1 mM of CDNB, 1 mM GSH in 0.1M phosphate buffer (pH 6.5). The formation of the GSH-CDNB conjugate was determined at 340 nm and the activity was calculated by using e=9.6 mM-1 cm-1.

HEK293 cells [4] = test: Annexin-V staining, control siRNA and Akt siRNA transfected cells; type: cell-based, human; settings: for Apoptotic events: Akt knocked down HEK293, DMA+Radiation; for Total early and late apoptotic cells: control siRNA HEK293, DMA+Radiation
Description: HEK 293 cells were transfected with Akt siRNA and control-siRNA (Santa Cruz Biotechnology Inc.) according to the manufacturer's instructions. Semi-quantitative RT-PCR was performed with primers specific for Akt and ACTB in control siRNA and Akt siRNA treated HEK cells for analysing knockdown of Akt […] gene expression.
HEK293 cells (2×10^5 cells/plate) were transfected with control siRNA and siRNA-Akt, and DMA, Radiation and DMA+Radiation treatments were given as described earlier and samples were collected at 3, 6, 12, 18 and 24 h (data not shown for 12 and 18 h). Samples were prepared according to the manufacturer's instructions (BD Pharmingen™ Annexin V: FITC Apoptosis Detection Kit I, Catalog Number 556547, USA) and the samples were subjected to flow cytometry analysis (Becton Dickinson).

HEK293 cells [5] = test: Proliferation kinetics in presence of inhibitors; type: cell-based, human
Description: HEK293 cells post 50 μM LY294002 (PI3K/Akt inhibitor) and 10 μM PS1145 (NFκB inhibitor) treatment were treated with 50 μM DMA and 5 Gy radiation. Same experiment was done with control (no inhibitor), only LY294002 and only PS1145 treated HEK cells. Percentage (%) radioprotection of cells at 24, 48 and 72 h was calculated by following formula— % growth of Radiation treated cells=(CNRadiation/CNControl)×100. % growth of DMA+Radiation treated cells=(CNDMA+Radiaion/CNControl)×100. % Radioprotection=% growth of DMA+Radiation treated cells−% growth of Radiation treated cells where CN is the cell number.

Structure (SMILES): COc1ccc(-c2nc3cc(-c4nc5cc(N6CCN(C)CC6)ccc5[nH]4)ccc3[nH]2)cc1OC [DMA, 5-(4-methylpiperazin-1-yl)-2-[2′-(3,4-dimethoxyphenyl)-5′-benzimidazolyl]benzimidazole]
- Spleen index (Balb/c mice spleen; 200 mg/kg oral before 8Gy, day 10): 0.33±0.02
- Spleen index (Balb/c mice spleen; DMA treatment only, 200 mg/kg): 0.41±0.05
- Endogenous colony forming units (Balb/c mice spleen; DMA+Radiation, 10th day post-irradiation): 11.25±1.7
- Active S-phase cells in intestine (Balb/c intestinal cells; 50 mg/kg i.v. pretreatment, 8Gy TBI): 11%
- Cell proliferation in intestine tissue (Balb/c intestinal cells; DMA treated vs control): same
- IC50 at short term incubation (A549 cells; A549, 50 μM DMA, 2 h): no observable IC50
- IC50 (cytotoxicity) (A549 cells; A549, 1-100 μM, up to 72 h): could not be achieved
- IC50 at short term treatment (A549 cells; A549, DMA at 509 μM for 2 h): no observable IC50
- IC50 at short term incubation (MRC5 cells; MRC5, 50 μM DMA, 2 h): no observable IC50
- IC50 at short term treatment (MRC5 cells; MRC5, DMA at 509 μM for 2 h): no observable IC50
- Concentration at which DMA was cytotoxic (HEK293 cells [1]; HEK293): 50 µM
- IC50 at short term incubation (HEK293 cells [1]; HEK293, 50 μM DMA, 2 h): no observable IC50
- IC50 at short term treatment (HEK293 cells [1]; HEK293, DMA for 2 h): no observable IC50
- IC50 ([2]; A549 cells, A549, 1-100 μM, up to 72 h): > 100 µM
- IC50 at 24 h ([2]; MRC5 cells, MRC-5 cells, 24 h): 92.5 µM
- Akt kinase activity [3]: higher Akt kinase activity
- Glutathione reductase activity (Balb/c mice liver tissue; DMA 2 h prior to irradiation vs irradiated group): significant decrease
- SOD activity (Balb/c mice liver tissue; DMA only): 16.96±1.35
- GST level (Balb/c mice liver tissue; DMA only, 200 mg/kg oral): 2.76±0.32
- MDA level in hepatic tissues (Balb/c mice liver tissue; DMA only, 200 mg/kg oral): 0.19±0.06
- Reduced glutathione (GSH) level in liver (Balb/c mice liver tissue; DMA only, 200 mg/kg oral): 5.07±0.09
- Reduced glutathione (GSH) level in liver (Balb/c mice liver tissue; DMA pre-treatment + 8Gy TBI): 3.73±0.69
- MDA level in hepatic tissues (Balb/c mice liver tissue; DMA pre-treatment + 8Gy TBI, 24 h post-irradiation): 0.20±0.04
- Total thiol contents in liver homogenates (Balb/c mice liver tissue; DMA pre-treatment + TBI): 0.91±0.08
- SOD level (Balb/c mice liver tissue; DMA pre-treatment to radiation (8Gy)): 15.50±0.60
- GST content (Balb/c mice liver tissue; DMA prior to radiation): 2.78±0.25
- Apoptotic events (HEK293 cells [4]; 3 h): 23%
- Apoptotic events (HEK293 cells [4]; 6 h): 21%
- Apoptotic events (HEK293 cells [4]; 24 h): 22%
- Total early and late apoptotic cells (HEK293 cells [4]; 3 h): 12%
- Total early and late apoptotic cells (HEK293 cells [4]; 6 h): 9%
- Total early and late apoptotic cells (HEK293 cells [4]; 24 h): 7%
- % radioprotection by DMA (HEK293 cells [5]; LY294002 and PS1145 simultaneously, 24 h): 3%
- % radioprotection by DMA (HEK293 cells [5]; LY294002 and PS1145 simultaneously, 48 h): 2.2%
- % radioprotection by DMA (HEK293 cells [5]; LY294002 and PS1145 simultaneously, 72 h): 2%
- % radioprotection by DMA (HEK293 cells [5]; LY294002 treated cells, 24 h): 15%
- % radioprotection by DMA (HEK293 cells [5]; LY294002 treated cells, 48 h): 10%
- % radioprotection by DMA (HEK293 cells [5]; LY294002 treated cells, 72 h): 4%
- % radioprotection by DMA (HEK293 cells [5]; PS1145 treated cells, 24 h): 4%
- % radioprotection by DMA (HEK293 cells [5]; PS1145 treated cells, 48 h): 3.5%
- % radioprotection by DMA (HEK293 cells [5]; PS1145 treated cells, 72 h): 2.4%
- % radioprotection by DMA (HEK293 cells [5]; no inhibitor, 50 μM DMA, 5 Gy, 24 h): 40%
- % radioprotection by DMA (HEK293 cells [5]; no inhibitor, 50 μM DMA, 5 Gy, 48 h): 35%
- % radioprotection by DMA (HEK293 cells [5]; no inhibitor, 50 μM DMA, 5 Gy, 72 h): 16%
